Data taken from patent EP0082266A1, “Substituted 1,5-diaminopentanes, their preparation and pharmaceutical compositions containing them” (BASF Aktiengesellschaft, priority 1981, dated 1983).
Counter-ions that a name gives are not always drawn.

Assays:
[1] = test system: Aconitinarrhythmie der Ratte; test: Antiarrhythmic activity, aconitine-induced arrhythmia in the anaesthetised rat (oral dosing, aconitine i.v. infusion 60 min later); type: in vivo, Ratten (Stamm: Sprague Dawley); conditions: for ED50: Rattus norvegicus, po, 1 h, read-out: Wirksame Dosis ED 50 %; for R.W. = Relative Wirksamkeit, bezogen auf Chinidin = 1,00 / Maximale Wirkung Δ % (Verlängerung der Aconitinfusionsdauer): rat, per os; for R.W. = Relative Wirksamkeit, bezogen auf Chinidin = 1,00: relative potency from ED 50 %; for Maximale Wirkung Δ % (Verlängerung der Aconitinfusionsdauer): effect of the maximal tolerated dose
Procedure: Zur Bestimmung der antiarrhythmischen Wirksamkeit werden die Substanzen Ratten (Stamm: Sprague Dawley, Gewicht 200 bis 250 g) oral appliziert. 45 min später werden die Tiere mit Thiobutabarbital-Natrium (100,0 mg/kg i.p.) narkotisiert. Als arrhythmogene Substanz dient Aconitin, das 60 min nach Substanzapplikation i.v. infundiert wird (Dosierungsgeschwindigkeit: 0,005 mg/kg x min). Bei nicht behandelten Tieren (N = 52) treten nach 2,74 + 0,07 min im EKG Arrhythmien auf, deren Eintritt durch Antiarrhythmika dosisabhängig verzögert werden kann.
Aus den linearen Beziehungen zwischen log Dosis (mg/kg) der Prüfsubstanzen und der relativen Verlängerung der Aconitin--Infusionsdauer (Δ%) wird die Dosis bestimmt, welche die Infusionsdauer um 50 % verlängert (ED 50 %).
(§1) Zur weiteren Charakterisierung der Substanzen wird aus der in den Experimenten verwendeten dezimalgeometrischen Dosenfolge (Faktor [formula] ) die antiarrhythmische Wirkung der maximal tolerierten Dosis bestimmt.

[2] = Acute toxicity / tolerability in the rat after oral dosing (toxic symptoms: changes of baseline ECG, cyanosis, convulsions); type: in vivo; conditions: in vivo, po; for MTD: per os, highest tolerated dose, at which the maximal effect was read, read-out: Maximale Wirkung Dosis (maximal tolerierte Dosis); for selectivity ratio: read-out: Q = Toxische Dosis / ED 50 %
Excerpt: as §1
(§2) Ferner wird die Dosis ermittelt, bei welcher toxische Symptome (Veränderungen des Ausgangs-EKG, Cyanose, Krämpfe) auftreten.

Ratte = test: as above; type: in vivo; conditions: per os; for Toxizität Dosis: dose after which the first toxic symptoms are observed
Excerpt: as §1, §2

| Structure (SMILES) | ED50 [1] | R.W. = Relative Wirksamkeit, bezogen auf Chinidin = 1,00 [1] | MTD [2] | selectivity ratio [2] | Toxizität Dosis (Ratte) | Maximale Wirkung Δ % (Verlängerung der Aconitinfusionsdauer) [1] | Q = Toxische Dosis / ED 50 % (Ratte; therapeutic width) |
| --- | --- | --- | --- | --- | --- | --- | --- |
| CC(C)C(CN)(CCCN(C)CCc1ccccc1)c1ccccc1 (stereo not drawn) [Beispiel 1, 1-Amino-2-isopropyl-2-phenyl-5-(phenethyl)methylamino-pentan] | 29.4 mg/kg | 1,48 | – | – | – | – | – |
| CC(C)C(CN)(CCCNCCc1ccccc1)c1ccccc1.Cl.Cl (stereo not drawn) [Beispiel 6, 1-Amino-2-isopropyl-2-phenyl-5-(phenethyl)amino--pentan-dihydrochlorid] | 21.6 mg/kg | 2,01 | – | – | – | – | – |
| CCNCC(CCCN(C)CCc1ccccc1)(c1ccccc1)C(C)C (stereo not drawn) [Beispiel 9, 1-Ethylamino-2-isopropyl-2-phenyl-5-(phenethyl)-methyl-amino-pentan-dihydrochlorid] | 11.8 mg/kg | 3,69 | – | – | – | – | – |
| CCCNCC(CCCN(C)CCc1ccccc1)(c1ccccc1)C(C)C (stereo not drawn) [Beispiel 10, 1-(n-Propyl)amino-2-isopropyl-2-phenyl-5-(phenethyl)-methylamino-pentan-dihydrochlorid] | 11.8 mg/kg | 3,69 | 100 mg/kg | 18 | 215 mg/kg | 243% | – |
| CC(C)NCC(CCCN(C)CCc1ccccc1)(c1ccccc1)C(C)C (stereo not drawn) [Beispiel 11, 1-Isopropylamino-2-isopropyl-2-phenyl-5-(phenethyl)-methylamino-pentan-dihydrochlorid] | 6.42 mg/kg | – | – | – | – | – | – |
| CCCCNCC(CCCN(C)CCc1ccccc1)(c1ccccc1)C(C)C (stereo not drawn) [Beispiel 12, 1-(n-Butyl)amino-2-isopropyl-2-phenyl-5-(phenethyl)-methylamino-pentan-dihydrochlorid] | 22.5 mg/kg | 1,93 | – | – | – | – | – |
| CCC(C)NCC(CCCN(C)CCc1ccccc1)(c1ccccc1)C(C)C (stereo not drawn) [Beispiel 13, 1-(sec-Butyl)amino-2-isopropyl-2-phenyl-5-(phenethyl)-methylamino-pentan-dihydrochlorid] | 12.9 mg/kg | 3,37 | 100 mg/kg | 17 | 215 mg/kg | 237% | – |
| CC(C)CNCC(CCCN(C)CCc1ccccc1)(c1ccccc1)C(C)C (stereo not drawn) [Beispiel 14, 1-Isobutylamino-2-isopropyl-2-phenyl-5-(phenethyl)-methylamino-pentan-dihydrochlorid] | 14.3 mg/kg | 3,04 | 100 mg/kg | 15 | 215 mg/kg | 287% | – |
| CCNCC(CCCN(C)CCc1ccc(OC)c(OC)c1)(c1ccc(OC)c(OC)c1)C(C)C (stereo not drawn) [Beispiel 15, 1-Ethylamino-2-isopropyl-2-(3,4-dimethoxyphenyl)-5--[(3,4-dimethoxyphenethyl)methylamino]-pentan-dihydrochlorid] | 17.1 mg/kg | 2,54 | – | – | – | – | – |
| COc1ccc(CCN(C)CCCC(CNC(C)C)(c2ccc(OC)c(OC)c2)C(C)C)cc1OC (stereo not drawn) [Beispiel 17, 1-Isopropylamino-2-isopropyl-2-(3,4-dimethoxyphenyl)-5--[(3,4-dimethoxyphenethyl)methylamino]-pentan-dihydrochlorid] | 26.1 mg/kg | 1,67 | – | – | – | – | – |
| CCNCC(CCCN(C)CCc1ccc(OC)c(OC)c1)(c1cc(OC)c(OC)c(OC)c1)C(C)C (stereo not drawn) [Beispiel 20, 1-Ethylamino-2-isopropyl-2-(3,4,5-trimethoxyphenyl)-5--[(3,4-dimethoxyphenethyl)methylamino]-pentan-dihydrochlorid] | 12.3 mg/kg | 3,54 | 215 mg/kg | 38 | 464 mg/kg | 224% | – |
| CCCNCC(CCCN(C)CCc1ccc(OC)c(OC)c1)(c1cc(OC)c(OC)c(OC)c1)C(C)C (stereo not drawn) [Beispiel 21, 1-(n-Propyl)amino-2-isopropyl-2-(3,4,5-trimethoxyphenyl)-5-[(3,4-dimethoxyphenethyl)methylamino]--pentan-dihydrochlorid] | 23.4 mg/kg | 1,86 | – | – | – | – | – |
| COc1ccc(CCN(C)CCCC(CNC(C)C)(c2cc(OC)c(OC)c(OC)c2)C(C)C)cc1OC (stereo not drawn) [Beispiel 22, 1-Isopropylamino-2-isopropyl-2-(3,4,5-trimethoxyphenyl)-5-[(3,4-dimethoxyphenethyl)methylamino]--pentan-dihydrochlorid] | 24.8 mg/kg | 1,75 | – | – | – | – | – |
| CCCCNCC(CCCN(C)CCc1ccc(OC)c(OC)c1)(c1cc(OC)c(OC)c(OC)c1)C(C)C (stereo not drawn) [Beispiel 23] | 33.8 mg/kg | – | – | – | – | – | – |
| CCC(C)NCC(CCCN(C)CCc1ccc(OC)c(OC)c1)(c1cc(OC)c(OC)c(OC)c1)C(C)C (stereo not drawn) [Beispiel 24] | 17 mg/kg | 2,56 | – | – | – | – | – |
| CCCCNCC(CCCN(C)CCc1ccc(OC)c(OC)c1)(c1ccc(Cl)cc1)C(C)C (stereo not drawn) [Beispiel 27, 1-(n-Butyl)amino-2-isopropyl-2-(4-chlorphenyl)--5-[(3,4-dimethoxyphenethyl)methylamino]-pentan--dihydrochlorid] | 21.5 mg/kg | 2,02 | – | – | – | – | – |
| CNCC(CCCN(C)CCc1ccccc1)c1ccccc1 (stereo not drawn) [Beispiel 28, 1-Methylamino-2-phenyl-5-(phenethyl)methylamino--pentan] | 11.6 mg/kg | 3,75 | – | – | – | – | – |
| CNCC(CCCN(C)CCc1ccccc1)(c1ccccc1)C(C)C (stereo not drawn) [Beispiel 30, 1-Methylamino-2-isopropyl-2-phenyl-5-(phenethyl)methyl-amino-pentan-dihydrochlorid] | 11 mg/kg | 3,96 | 215 mg/kg | 42 | 464 mg/kg | 499% | – |
| CNCC(CCCN(C)CCc1ccc(OC)c(OC)c1)(c1ccc(OC)c(OC)c1)C(C)C (stereo not drawn) [Beispiel 32, 1-Methylamino-2-isopropyl-2-(3,4-dimethoxyphenyl)-5--[(3,4-dimethoxyphenethyl)methylamino]-pentan-dihydrochlorid] | 33.8 mg/kg | – | – | – | – | – | – |
| CNCC(CCCN(C)CCc1ccc(OC)c(OC)c1)(c1cc(OC)c(OC)c(OC)c1)C(C)C (stereo not drawn) [Beispiel 33, 1-Methylamino-2-isopropyl-2-(3,4,5-trimethoxyphenyl)--5-[(3,4-dimethoxyphenethyl)methylamino]-pentan-dihydrochlorid] | 21.5 mg/kg | 2,02 | – | – | – | – | – |
| CN(C)CC(CCCN(C)CCc1ccccc1)c1ccccc1 (stereo not drawn) [Beispiel 34, 1-Dimethylamino-2-phenyl-5-(phenethyl)methylamino--pentan] | 14.7 mg/kg | 2,96 | – | – | – | – | – |
| CN(C)CC(C)(CCCN(C)CCc1ccccc1)c1ccccc1 (stereo not drawn) [Beispiel 35, 1-Dimethylamino-2-methyl-2-phenyl-5-(phenethyl)-methyl-amino-pentan] | 8.02 mg/kg | 5,42 | – | – | – | – | – |
| CCCCC(CCCN(C)CCc1ccccc1)(CN(C)C)c1ccccc1 (stereo not drawn) [Beispiel 36, 1-Dimethylamino-2-(n-butyl)-2-phenyl-5-(phenethyl)--methylamino-pentan] | 8.66 mg/kg | 5,02 | – | – | – | – | – |
| CC(C)C(CCCN(C)CCc1ccccc1)(CN(C)C)c1ccccc1 (stereo not drawn) [Beispiel 37, 1-Dimethylamino-2-isopropyl-2-phenyl-5-(phenethyl)--methylamino-pentan-dihydrochlorid] | 7.99 mg/kg | 5,44 | 46.4 mg/kg | 13 | 100 mg/kg | 423% | – |
| COc1ccc(CCN(C)CCCC(CN(C)C)(c2ccc(OC)c(OC)c2)C(C)C)cc1OC (stereo not drawn) [Beispiel 38, 1-Dimethylamino-2-isopropyl-2-(3,4-dimethoxyphenyl)--5-[(3,4-dimethoxyphenethyl)methylamino]-pentan-dihydrochlorid] | 27.8 mg/kg | 1,57 | – | – | – | – | – |
| CCCCCCCCCCCCC(CCCN(C)CCc1ccccc1)(CN(C)C)c1ccccc1 (stereo not drawn) [Beispiel 40, 1-Dimethylamino-2-(n-dodecyl)-2-phenyl-5-(phenethyl)methylamino-pentan] | 6.88 mg/kg | 6,32 | – | – | – | – | – |
| C=CC1CN2CCC1CC2C(O)c1ccnc2ccc(OC)cc12 (stereo not drawn) [Chinidin, reference compound] | 43.5 mg/kg | ≡ 1,00 | – | – | 464 mg/kg | 129% | ll |
